The text below walks through data of US20120301895A1, “METHODS OF MODULATING BINDING OF SON OF SEVENLESS TO PHOSPHATIDIC ACID AND IDENTIFYING COMPOUNDS THAT MODULATE SUCH BINDING” (THE RESEARCH FOUNDATION OF STATE UNIVERSITY OF NEW YORK, priority 2007, published 2012).

One assay deals with 786-0 cells. The assay can be described thus: Apoptosis in 786-O cells. The assay is classed as cell-based, human.
In another assay the test system is HIF2α. Kind of assay: HIF2α expression in 786-O cells (Western blot). The assay is classed as cell-based, human. To be noted: 0.5% serum, 4 hr, honokiol 20 μM, 1-BtOH 0.8%. A general note: In western blotting, separated proteins are transferred to a membrane and probed.
For another assay, the target named is T1, PLD2 (Homo sapiens, UniProt O14939).
T1 construct: made in house
T1 sequence (O14939 whole entry): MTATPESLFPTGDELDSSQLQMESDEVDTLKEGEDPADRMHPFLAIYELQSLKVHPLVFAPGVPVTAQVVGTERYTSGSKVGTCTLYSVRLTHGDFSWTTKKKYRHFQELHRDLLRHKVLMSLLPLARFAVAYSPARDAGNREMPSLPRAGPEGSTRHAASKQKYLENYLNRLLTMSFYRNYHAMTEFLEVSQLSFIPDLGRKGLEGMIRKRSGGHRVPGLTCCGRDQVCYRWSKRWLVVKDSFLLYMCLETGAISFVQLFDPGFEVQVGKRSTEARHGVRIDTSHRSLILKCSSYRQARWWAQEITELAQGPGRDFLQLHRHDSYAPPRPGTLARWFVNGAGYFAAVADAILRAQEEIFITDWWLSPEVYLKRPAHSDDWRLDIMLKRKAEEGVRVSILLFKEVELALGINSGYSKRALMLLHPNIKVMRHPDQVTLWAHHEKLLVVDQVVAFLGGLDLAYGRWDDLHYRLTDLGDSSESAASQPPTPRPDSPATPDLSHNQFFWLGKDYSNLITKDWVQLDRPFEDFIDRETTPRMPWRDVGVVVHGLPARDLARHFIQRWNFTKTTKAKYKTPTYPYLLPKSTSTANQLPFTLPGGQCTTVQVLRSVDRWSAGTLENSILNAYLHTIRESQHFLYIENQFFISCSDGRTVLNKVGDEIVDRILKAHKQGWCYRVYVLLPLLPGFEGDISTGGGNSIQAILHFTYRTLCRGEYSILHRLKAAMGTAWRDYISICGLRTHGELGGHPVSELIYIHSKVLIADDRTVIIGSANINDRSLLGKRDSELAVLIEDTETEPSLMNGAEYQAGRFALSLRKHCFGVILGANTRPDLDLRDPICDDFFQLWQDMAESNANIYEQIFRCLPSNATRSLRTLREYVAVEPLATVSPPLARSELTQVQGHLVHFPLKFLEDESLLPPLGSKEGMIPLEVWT
Kind of assay: In vitro PLD activity, exogenous substrate assay, PLD2. As to conditions: purified recombinant PLD2, 30 min at 37° C. Format: biochemical. On the procedure: In FIG. 13A, MDA-MB-231 cells were plated as in FIGS. 12A-C and then shifted to either 10% serum or 0.5% serum overnight as indicated. Honokiol (20 μM) or control ethanol was then added for 4 hr as indicated, at which time the cells were harvested and the levels of PBt were determined as in FIGS. 12A-C. The experiment shown is representative of at least three independent experiments. In FIG. 13B, the effect of honokiol on the activity of PLD isoforms was measured using exogenous substrate assay as described previously (Henage et al., “Kinetic Analysis of a Mammalian Phospholipase D: Allosteric Modulation by Monomeric GTPases, Protein Kinase C, and Polyphosphoinositides,” J. Biol. Chem. 281:3408-17 (2006), which is hereby incorporated by reference in its entirety). […] The amount of background was determined and subtracted using a bovine serum albumin standard. […]
For in vivo PLD activity, cells were plated in 60 mm culture dishes in DMEM with 10% serum at a density that would allow them to grow to about 80% confluence after 2 days, then cells were shifted to DMEM containing 0.5% or 10% serum as indicated in the figure legends overnight. […] Briefly, PLD activity was measured by the release of [methyl-^3H] choline from [choline-methyl-^3H]dipalmitoyl-phosphatidylcholine. […]

A further assay relates to MDA-MB-231 cells. The assay can be described thus: Cell viability (trypan blue) and PARP cleavage in MDA-MB-231 cells. Format: cell-based, human. As to conditions: honokiol 20 μM. As to the method:
MDA-MB-231 cells were plated in DMEM with 10% serum for 48 hr then changed to DMEM with either 10% or 0.5% serum overnight as indicated. Honokiol (20 μM) or control ethanol was then added either at the time of changing media (24 hr time point), or 4 hr prior to harvesting (4 hr time point) as indicated. The cells were then examined for cell viability and PARP cleavage as described previously (Chen et al., “Alternative Phospholipase D/mTOR Survival Signal in Human Breast Cancer Cells,” Oncogene 24:672-9 (2005), which is hereby incorporated by reference in its entirety). The Western blot is representative of at least three independent experiments. The error bars for cell viability represent the standard deviation for triplicate samples from a representative experiment repeated three times.
Cell viability was determined by trypan blue exclusion. After various treatments, cells were harvested, washed, and treated with trypan blue at a concentration of 0.4% w/v. After 10 min, trypan blue uptake (dead cells) was determined by counting on a hemocytometer. Apoptosis was evaluated by examination of cleavage of the caspase 3 substrate PARP as described previously (Chen et al., “Alternative Phospholipase D/mTOR Survival Signal in Human Breast Cancer Cells,” Oncogene 24:672-9 (2005), which is hereby incorporated by reference in its entirety).
The effect of honokiol on cell viability and cleavage of the caspase 3 substrate poly-(ADP-ribose) polymerase (“PARP”)—an indicator of apoptotic cell death—was examined in the MDA-MB-231 and 786-0 cells. The effect of honokiol on cell viability and PARP cleavage in 0.5% serum was examined after 4 hr and 24 hr honokiol treatment and in 10% serum after 24 hr honokiol treatment in the MDA-MB-231 cells. […] Importantly, the cells were still viable after 4 hr of honokiol treatment—the time point used in FIGS. 12 and 13 where the effect of honokiol upon PLD activity and on S6K and 4E-BP1 phosphorylation was examined.

The subject of assay [1] is MDA-MB-231 human breast cancer cells. As to conditions: Wolf et al. 2007; cited from earlier work.

Description for 786-0 cells: Cell viability was determined by trypan blue exclusion. After various treatments, cells were harvested, washed, and treated with trypan blue at a concentration of 0.4% w/v. After 10 min, trypan blue uptake (dead cells) was determined by counting on a hemocytometer. […] The effect of honokiol on cell viability and cleavage of the caspase 3 substrate poly-(ADP-ribose) polymerase (“PARP”)—an indicator of apoptotic cell death—was examined in the MDA-MB-231 and 786-0 cells. The effect of honokiol on cell viability and PARP cleavage in 0.5% serum was examined after 4 hr and 24 hr honokiol treatment and in 10% serum after 24 hr honokiol treatment in the MDA-MB-231 cells.
Description for HIF2α: In FIG. 15B, 786-O cells were plated and then shifted to media containing 0.5% serum 24 hr later. 18 hr later, the cells were treated with 1-Bt0H (0.8%), honokiol (Hon) (20 μM), and t-BtOH (0.8%) as indicated. Cell lysates were prepared 4 hr later and examined for HIF2α and actin expression by Western lot analysis. The experiment shown is representative of two independent experiments.
Extraction of proteins from cultured cells and Western blot analysis of extracted proteins was performed using the ECL system (Amersham) as described previously (Chen et al., “Alternative Phospholipase D/mTOR Survival Signal in Human Breast Cancer Cells,” Oncogene 24:672-9 (2005), which is hereby incorporated by reference in its entirety).
The effect of honokiol on HIF2α expression was examined in these cells.

Turning to `C=CCc1ccc(O)c(-c2ccc(O)c(CC=C)c2)c1` [honokiol, Honokiol], in the assay with 786-0 cells, the apoptosis result is recorded as “induced apoptosis”. Also, the HIF2α expression entry in the assay with HIF2α was “suppresses”. In addition, the “in vitro activity of PLD2” value at PLD2 was “no significant effect”. The cell viability result in the assay on MDA-MB-231 cells (4 hr, 0.5% serum) was “still viable”. In addition, in the assay with MDA-MB-231 cells (24 hr, 0.5% serum), the PARP cleavage result is given as “increased” and the cell viability entry is on record as “reduced”. Further, in the assay on MDA-MB-231 cells (24 hr, 10% serum), the PARP cleavage increased entry was “not” and the cell viability reduced entry was “not”. In addition, in assay [1], the “growth of MDA-MB-231 cells in mouse xenograft” value was “suppress the growth”.
